The source of these data is patent publication US6346373B1, “Whole cell assay for cathepsin K activity” (Merck Frosst Canada & Co.,, priority 1999, dated 2002).

Entries after “also recorded” stand apart in the source; their conditions may differ.

Data set [1] has as its target T1, intracellular cathepsin K in hCat K cells (Homo sapiens, UniProt P43235).
T1 construct: expressed in transfected cells
T1 sequence (P43235 115-329): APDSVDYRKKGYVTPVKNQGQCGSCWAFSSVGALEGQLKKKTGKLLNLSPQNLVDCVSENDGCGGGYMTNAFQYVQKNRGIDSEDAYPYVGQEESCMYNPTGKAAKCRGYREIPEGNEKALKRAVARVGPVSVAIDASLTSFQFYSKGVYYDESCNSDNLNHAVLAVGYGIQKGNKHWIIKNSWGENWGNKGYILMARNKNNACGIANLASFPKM
The data set is described as follows: Flow cytometry (FACS) analysis of hCat K CHO cells with [Z-Leu-Arg]2-rhodamine. Type of data set: cell-based. Conditions: 5 μM Z-Leu-Arg-Rho, cystatin and SBTI present (FIG. 8C). The method, then: FIGS. 8A-8C show the results of the flow cytometry analysis of mock and hCat K expressing CHO cells. Pelleted cells are resuspended in Ca^2+ and Mg^2+ free PBS containing 20 μg/ml cystatin and 100 μg/ml SBTI. After a preincubation of 15 min at […], the substrate, 5 μM Z-Leu-Arg-rhodamine is added. Flow cytometry analysis is performed after a 15 min incubation at 37° C. with the substrate.
Stable mock or hCat K cell lines are trypsinized and resuspended at a density of 1 million cells/ml in Ca^2+ and Mg^2+ free PBS, 20 μg/ml cystatin and 100 μg/ml soybean trypsin inhibitor. Cells are preincubated for 15 min at 37° C. in the presence of vehicle or an inhibitor followed by the addition of the substrate, [Z-Leu-Arg]2-rhodamine (5 μM). Flow cytometry analysis is performed using a FACSCalibur system (Becton Dickinson, CA, USA) equipped with a CellQuest software. Voltage and fluorescence compensation adjustments are performed before each experiment using CaliBRITE beads (Becton Dickinson, CA, USA) and the FACSComp software (Becton Dickinson, CA, USA). A minimum of 10,000 events is collected for each sample. Cells are gated to exclude cell debris and abnormally large or aggregated cells.
(In general: A flow cytometer gives signals particle by particle.)

The target of data set [2] is T2, recombinant cathepsin K expressed by the CHO tranfectants (hCat K extract) (Homo sapiens, UniProt P43235).
T2 construct: expressed in transfected cells
T2 sequence (P43235 115-329): T1 sequence (P43235 115-329)
Nature of the data set: Enzyme assay in hCat K CHO cell extract supernatant, hydrolysis of Z-Leu-Arg-rhodamine. Type of data set: biochemical. The following applies: 5 μg/ml total cell protein in buffer A, 15 min preincubation, 5 μM substrate (FIG. 4). As to the method: (§1) The rate of substrate hydrolysis is determined in supernatants from extracts of mock and cathepsin K expressing cells (5 μg/ml of total cell protein in buffer A) and a suspension of pure cathepsin K enzyme (3 nM resuspended in buffer A), in the presence of different concentrations of cystatin. Suspensions are preincubated with cystatin for 15 min, then the reaction is initiated with the addition of the substrate (5 μM Z-Leu-Arg-Rhodamine). Each data point is an average of duplicates and is reported as a percentage of inhibition of the control reaction.
Cultured tranfectants are pelleted, resuspended in PBS and sonicated for 3×10 s using a Kontes Ultrasonic Disrupter. […] Protein concentrations are determined on all the supernatants using the Pierce Coomassie Protein Reagent (Pierce, Ill. USA) as described in the manufacturer's instruction.
(§2) The enzymatic activity of purified cathepsin K (3 nM) and transfectants' supernatants (5 μg/ml of protein) is determined by following the rate of hydrolysis of different peptide substrates conjugated to either AMC or rhodamine.
Assays are performed at room temperature in 200 μl of buffer A [50 mM MES (2-(N-morpholino)ethanesulfonic acid) buffer, pH 5.5, containing 2.5 mM EDTA, 2.5 mM dithiothreitol, 10% DMSO]. […] Cathepsin K activity measurements are calculated as initial rates over the first 5 min of the reaction. […]

Data set [3] can be described thus: Cell permeability tested in CACO-2 cells. Type of data set: in vitro ADME. Conditions: unpublished results. (Caco-2 monolayers are a common model of the intestinal barrier.)
Data set [4] relates to extracellular protease activity of whole hCat K cells. The data set is described as follows: Effect of cell-impermeable protease inhibitors on Z-Leu-Arg-Rhodamine hydrolysis by whole hCat K cells (FIG. 5). Type of data set: cell-based. The following applies: cystatin 20 μg/ml, EDTA 1 mM, SBTI 100 μg/ml, pepstatin A 0.7 μg/ml; 5 μM Z-Leu-Arg-Rhodamine (FIG. 5). As to the method: Cells are seeded in sterile 96-wells cell culture plates, grown for 24 h and then washed twice with PBS. Into each well, HBSS pH 7.4 containing 15 mM Hepes is added. The rate of substrate hydrolysis is determined in the presence of the designated protease inhibitors. Cells are preincubated with an inhibitor for 15 min, then the reaction initiated with the addition of the substrate, 5 μM Z-Leu-Arg-Rhodamine. […] The reported enzymatic activities constitute the initial rate of substrate hydrolysis and each data point is an average of duplicates.
To determine the effect of different inhibitors on cathepsin K activity, mock and hCat K whole cells are preincubated with 1 μl of vehicle (control) or an inhibitor for 15 min at room temperature followed by the addition of the substrate. All inhibitors are prepared as stock solutions in DMSO (dimethylsulfoxide) and assays performed with a final DMSO concentration of 1.5%.
Mock and hCat K cells are plated into 96 well tissue culture plates as described in materials and methods and the activity is determined using the Z-Leu-Arg-rhodamine substrate. […]

A further data set has as its target T3, purified cathepsin K (Homo sapiens, UniProt P43235).
T3 construct: Standards (10 ng) of human mature cathepsin K (pure Cat k mature)
T3 sequence (P43235 115-329): T1 sequence (P43235 115-329)
The data set is described as follows: Pure cathepsin K enzyme assay, hydrolysis of Z-Leu-Arg-Rhodamine in buffer A. The following applies: 15 min preincubation; for IC50: pure cathepsin K in buffer A, 5 μM Z-Leu-Arg-Rhodamine, read-out: IC50 Pure Cat K. Type of data set: biochemical. The method, then:
as §1, §2
Assays are performed at room temperature in 200 μl of buffer A [50 mM MES (2-(N-morpholino)ethanesulfonic acid) buffer, pH 5.5, containing 2.5 mM EDTA, 2.5 mM dithiothreitol, 10% DMSO]. Substrate hydrolysis is monitored over a period of 10 min at room temperature in a Cytofluor 4000 fluorescent plate reader (Perseptive Biosystems, MA, USA). Cathepsin K activity measurements are calculated as initial rates over the first 5 min of the reaction.
(§3) Stable mock or hCat K expressing cells are resuspended in HBSS, pH 7.4 supplemented with 15 mM Hepes, 20 μg/ml cystatin and 100 μg/ml SBTI. Pure cathepsin K enzyme is resuspended in buffer A. Enzyme suspensions are preincubated with the designated inhibitor for 15 min before initiating the reaction with 5 μM of the substrate Z-Leu-Arg-Rhodamine.

The target of data set [5] is human mature cathepsin K (purified enzyme) (human) (UniProt P43235). The data set is described as follows: cell-based or functional assay.
The target of data set [6] is recombinant human cathepsin K expressed in CHO cells stably transfected with pcDNA3.1/hCat K (human) (UniProt P43235). The data set is described as follows: cell-based or functional assay.
In data set [7] the target is T4, intracellular cathepsin K in hCat K expressing CHO cells (Homo sapiens, UniProt P43235).
T4 construct: expressed in transfected cells
T4 sequence (P43235 115-329): T1 sequence (P43235 115-329)
Nature of the data set: Whole cell assay for cathepsin K in hCat K expressing CHO cells in presence of cystatin and SBTI. Type of data set: cell-based. The following applies: hCat K expressing cells in HBSS pH 7.4, 15 mM Hepes, 20 μg/ml cystatin, 100 μg/ml SBTI; 15 min preincubation, 5 μM Z-Leu-Arg-Rhodamine. The method, then: Unless otherwise indicated, cathepsin K activity in intact cells is conducted by challenging the cells with 5 μM of the substrate [Z-Leu-Arg]2-rhodamine in the presence of cystatin and SBTI. Using sterile 96-wells culture plates (Nunc, DK, Denmark), 50,000 mock or Cat K expressing stable cell lines are dispensed into each well and incubated for 24 h. Using the Skanwasher 300 plate washer (Skatron, VA, USA) the cells are washed twice with PBS containing Ca^2+ and Mg^2+. Then, pre-incubated for 15 min at room temperature in 200 μl HBSS (Hank's buffered saline solution), pH 7.4, supplemented with 15 mM Hepes, 20 μg/ml cystatin (Calbiochem, CA, USA) and 100 μg/ml soybean trypsin inhibitor (Sigma, ON, Canada). The pre-incubated cells are then challenged with the addition of 2 μl of [Z-Leu-Arg]2-rhodamine (500 μM stock solution in DMSO to a final 5 μM concentration). Substrate hydrolysis is monitored at room temperature in a Cytofluor 4000 fluorescent plate reader (Perseptive Biosystems, MA, USA).
as §3

A further data set has as its system bone resorption. The following applies: Delaisse et al., 1987; cited from earlier work.

Regarding `CCOC(=O)[C@H]1O[C@@H]1C(=O)N[C@@H](CC(C)C)C(=O)NCCC(C)C` [Inhibitor E64d], the “Effect on increase in fluorescence in hCat K cells” value in [1] is “inhibited; also recorded: repressed”.
As to cystatin [listing 1 of 2 here], in data set [2], the “IC50 on hydrolysis of Z-Leu-Arg-rhodamine by hCat K extract” value was determined as 0.09 µg/mL. In addition, in data set [3], the Cell permeability result is on record as “does not permeate into cells”. For the same compound, the “Effect on protease activity in whole hCat K cells” value in data set [4] is recorded as “decrease in protease activity; also recorded: effective inhibitor of extracellular cathepsin K activity”. For the same compound, at purified cathepsin K (3 nM pure enzyme in buffer A, 5 μM substrate (FIG. 4)), the “IC50 on hydrolysis of Z-Leu-Arg-rhodamine by purified cathepsin K” value came out at 0.2 µg/mL.
On to cystatin [listing 2 of 2 here], for which the IC50, inhibition of the rate of hydrolysis of Z-Leu-Arg-rhodamine in data set [5] amounted to 0.2 µg/mL; in data set [6] it was 0.09 µg/mL.
As usually defined, the IC50 is the concentration that inhibits the measured activity by half. Consider `CC(C)CCNC(=O)[C@H](CC(C)C)NC(=O)[C@H]1O[C@@H]1C(=O)O` [Inhibitor E64c], for which the 50% inhibitory concentration (IC50) turned out to be 41 nM on purified cathepsin K and 307 nM in data set [7].
For `CC(C)C[C@H](NC(=O)C1OC1C(=O)O)C(=O)NCCCCNC(=N)N` (stereo partly drawn) [Inhibitor E64, trans-epoxysuccinyl-L-leucylamide-(4-guanidino) butane], in the data set on bone resorption, the “Inhibition of bone resorption” value is reported as “effective in inhibiting bone resorption”. The IC50 on purified cathepsin K worked out at 30 nM; in data set [7], 576 nM.
